In patent US5552520A, “Therapeutic peptide derivatives” (Biomeasure, Inc., priority 1994, dated 1996):
Numbered stars: 1 amine (or outer) side, 2 acyl side, 3 side chain; on linkers, the order of the positions; unused ones are H or OH. Bridge positions count the residues as written; N and C are the ends. Square brackets hold non-standard residues; d marks the D form. Peptide text beside a SMILES is read from it. * marks the point of attachment. X1 = O=C1O[C@H]([C@@H](O)CO)C(OCC(=O)*)=C1OCC(O)CO; 2Nal = N[C@@H](Cc1ccc2ccccc2c1)C(=O)O; Suc = O=C(CCC(=O)[*:2])[*:1]; NHC(CH2OH)3 = OCC(CO)(CO)N*

Key:
[1] = molecular target: T1, somatostatin receptor (Rattus norvegicus, UniProt P30680); assay: Somatostatin binding assay: in vitro inhibition of binding of [125I-Tyr11]SRIF-14 to rat AR42J pancreas membranes; details: inhibition of [125I-Tyr11]SRIF-14 binding, read-out: IC50, in vitro binding affinity
T1 construct: SRIF-14 to rat AR42J pancreas membranes; endogenous in cells; host or cells: rat AR42J pancreatic cells (membrane preparation)
T1 sequence (P30680 whole entry): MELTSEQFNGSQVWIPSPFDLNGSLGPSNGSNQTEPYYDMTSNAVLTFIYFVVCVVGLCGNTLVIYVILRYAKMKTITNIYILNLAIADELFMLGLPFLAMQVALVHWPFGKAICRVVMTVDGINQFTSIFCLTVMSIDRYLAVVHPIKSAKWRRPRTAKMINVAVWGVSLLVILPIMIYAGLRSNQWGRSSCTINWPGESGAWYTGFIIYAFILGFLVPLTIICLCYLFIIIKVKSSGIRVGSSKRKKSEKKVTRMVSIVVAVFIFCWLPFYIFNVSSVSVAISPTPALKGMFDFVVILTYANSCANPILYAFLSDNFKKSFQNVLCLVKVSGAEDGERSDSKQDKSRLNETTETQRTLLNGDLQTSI

[2] = test system: stimulated growth hormone release; assay: Growth Hormone (GH) Inhibition Assay in rats (D-Ala2-GRF stimulated GH); format: in vivo, male Sprague Dawley rats; details: s.c., 25 μg/kg
Experimental: Groups of five male Sprague Dawley rats (each having a weight between 250-300 g) were injected s.c. with a somatostatin derivative or saline. Thirty minutes prior to the selected post-drug time periods shown in table II (2 hours, 4 hours, 6 hours, 8 hours), rats were anesthetized with Nembutal i.p. (50 mg/kg). Fifteen minutes following anesthesia, an aliquot of blood was withdrawn by cardiac puncture over heparin to measure basal GH. Additionally, a s.c. injection of D-Ala^2 -GRF (10 μg/kg) was given. Fifteen minutes later, blood was withdrawn to quantitate the stimulated GH, which was measured in plasma using a radioimmunoassay supplied by NIADDKD. The percentage of GH inhibition was calculated from differences obtained between basal and stimulated GH values.
The efficacy of D-Phe-c[Cys-Tyr-D-Trp-Lys-Thr-Cys]-Nal-NH2 (SEQ ID NO. 113) (BIM-23060) in inhibiting growth hormone in rats is compared with other somatostatin derivatives (BIM-23167, BIM-23179, and BIM-23181) of the invention.
Additional experiments were conducted on D-Phe-c[Cys-Tyr-D-Trp-Lys-Abu-Cys]-Thr-NH2, (SEQ ID NO. 112) a somatostatin analog, and BIM-23190, BIM-23195 and BIM-23197, to determine the ED50 (i.e., the concentration of each compound required to inhibit fifty percent of growth hormone release after a specified time) of the respective compound. Experiments were conducted at a dose range of between 25 μg/kg and 0.25 μg/kg.

[3] = test system: AR42J rat pancreas tumor cells; assay: Antiproliferative assay on AR42J cells; format: cell-based; details: Concentration 100 nM, AR42J Rat Pancreas Tumor Cells after 8 days
Experimental: The purified somatostatin analogs described above were also tested for activity against rapidly proliferating cells.
^1 Concentration 100 nM, AR42J Rat Pancreas Tumor Cells after 8 days.

[4] = test system: AR42J rat pancreas tumor cells; assay: Antiproliferative assay on AR42J cells; format: cell-based; details: growth curves, concentration dependence

Row | Compound | IC50 [1] [nM] | Inhibition of stimulated growth hormone release (percentile control) ([2]; 2 Hours) | Inhibition of stimulated growth hormone release (percentile control) ([2]; 4 Hours) | Inhibition of stimulated growth hormone release (percentile control) ([2]; 6 Hours) | Inhibition of stimulated growth hormone release (percentile control) ([2]; 8 Hours) | Cell growth (percent of control) [3] | Inhibition of growth of AR42J cells (FIG. 1), in words [4]
1 | C[C@@H](O)[C@@H]1NC(=O)[C@H](CCCCN)NC(=O)[C@@H](Cc2c[nH]c3ccccc23)NC(=O)[C@H](Cc2ccc(O)cc2)NC(=O)[C@@H](NC(=O)[C@@H](Cc2ccccc2)NC(=O)CCC(=O)NC(CO)(CO)CO)CSSC[C@@H](C(=O)N[C@@H](Cc2ccc3ccccc3c2)C(N)=O)NC1=O [BIM-23167, (HO-CH2)3 -C-NH-CO-(CH2)2 -CO-D-Phe-c[Cys-Tyr-D-Trp-Lys-Thr-Cys]-Nal-NH2] ({NHC(CH2OH)3-Suc}-[dF]CY[dW]KTC[2Nal]-NH2; disulfide 2-7) | 0.09 | 92.67 | 79.54 | 59.72 | 50.14 | 60.2% of control | 
2 | CC(C)[C@@H]1NC(=O)[C@H](CCCCN)NC(=O)[C@@H](Cc2c[nH]c3ccccc23)NC(=O)[C@H](Cc2ccc(O)cc2)NC(=O)[C@@H](NC(=O)[C@@H](Cc2ccc3ccccc3c2)NC(=O)COC2=C(O)C(=O)O[C@@H]2[C@@H](O)CO)CSSC[C@@H](C(=O)N[C@H](C(N)=O)[C@@H](C)O)NC1=O [BIM-23135] |  |  |  |  |  | 62.9% of control | 
3 | D-Nal-c[Cys-Tyr-D-Trp-Lys-Val-Cys]-Thr-NH2 [BIM-23014C, reference compound] |  |  |  |  |  | 74.1% of control | inhibit the growth of AR42J rat pancreas tumor cells in a concentration-dependent fashion
4 | CC(C)[C@@H]1NC(=O)[C@H](CCCCN)NC(=O)[C@@H](Cc2c[nH]c3ccccc23)NC(=O)[C@H](Cc2ccc(O)cc2)NC(=O)[C@@H](NC(=O)[C@@H](Cc2ccc3ccccc3c2)NC(=O)CCCOC2=C(O)C(=O)O[C@@H]2[C@@H](O)CO)CSSC[C@@H](C(=O)N[C@H](C(N)=O)[C@@H](C)O)NC1=O [BIM-23118] |  |  |  |  |  | 61.0% of control | the more effective of the two compounds
5 | C[C@H](N)C(=O)NCC(=O)N[C@H]1CSSC[C@@H](C(=O)O)NC(=O)[C@H](CO)NC(=O)[C@H]([C@@H](C)O)NC(=O)[C@H](Cc2ccccc2)NC(=O)[C@H]([C@@H](C)O)NC(=O)[C@H](CCCCN)NC(=O)[C@H](Cc2c[nH]c3ccccc23)NC(=O)[C@H](Cc2ccccc2)NC(=O)[C@H](Cc2ccccc2)NC(=O)[C@H](CC(N)=O)NC(=O)[C@H](CCCCN)NC1=O [SRIF-14, reference compound] |  |  |  |  |  | 91.3% of control | 
6 | CC[C@@H]1NC(=O)[C@H](CCCCN)NC(=O)[C@@H](Cc2c[nH]c3ccccc23)NC(=O)[C@H](Cc2ccc(O)cc2)NC(=O)[C@@H](NC(=O)[C@@H](Cc2ccccc2)NC(=O)COC2=C(OCC(O)CO)C(=O)O[C@@H]2[C@@H](O)CO)CSSC[C@@H](C(=O)N[C@H](C(N)=O)[C@@H](C)O)NC1=O (stereo partly drawn) [BIM-23183] |  |  |  |  |  | 69.1% of control | 
7 | C[C@@H](O)[C@@H]1NC(=O)[C@H](CCCCN)NC(=O)[C@@H](Cc2c[nH]c3ccccc23)NC(=O)[C@H](Cc2ccc(O)cc2)NC(=O)[C@@H](NC(=O)[C@@H](Cc2ccccc2)NC(=O)COC2=C(OCC(O)CO)C(=O)O[C@@H]2[C@@H](O)CO)CSSC[C@@H](C(=O)N[C@@H](Cc2ccc3ccccc3c2)C(N)=O)NC1=O (stereo partly drawn) [BIM-23181] (X1-[dF]CY[dW]KTC[2Nal]-NH2; disulfide 2-7) |  | 99.24 | 77.07 | 60.56 | 56.12 | 69.1% of control | 
